The Kinase Knowledgebase extract (Sharma et al. 2016)

target: PIK3CD (Human) (UniProt O00329); assay: Enzyme Assay
Sequence (O00329 whole entry, looked up): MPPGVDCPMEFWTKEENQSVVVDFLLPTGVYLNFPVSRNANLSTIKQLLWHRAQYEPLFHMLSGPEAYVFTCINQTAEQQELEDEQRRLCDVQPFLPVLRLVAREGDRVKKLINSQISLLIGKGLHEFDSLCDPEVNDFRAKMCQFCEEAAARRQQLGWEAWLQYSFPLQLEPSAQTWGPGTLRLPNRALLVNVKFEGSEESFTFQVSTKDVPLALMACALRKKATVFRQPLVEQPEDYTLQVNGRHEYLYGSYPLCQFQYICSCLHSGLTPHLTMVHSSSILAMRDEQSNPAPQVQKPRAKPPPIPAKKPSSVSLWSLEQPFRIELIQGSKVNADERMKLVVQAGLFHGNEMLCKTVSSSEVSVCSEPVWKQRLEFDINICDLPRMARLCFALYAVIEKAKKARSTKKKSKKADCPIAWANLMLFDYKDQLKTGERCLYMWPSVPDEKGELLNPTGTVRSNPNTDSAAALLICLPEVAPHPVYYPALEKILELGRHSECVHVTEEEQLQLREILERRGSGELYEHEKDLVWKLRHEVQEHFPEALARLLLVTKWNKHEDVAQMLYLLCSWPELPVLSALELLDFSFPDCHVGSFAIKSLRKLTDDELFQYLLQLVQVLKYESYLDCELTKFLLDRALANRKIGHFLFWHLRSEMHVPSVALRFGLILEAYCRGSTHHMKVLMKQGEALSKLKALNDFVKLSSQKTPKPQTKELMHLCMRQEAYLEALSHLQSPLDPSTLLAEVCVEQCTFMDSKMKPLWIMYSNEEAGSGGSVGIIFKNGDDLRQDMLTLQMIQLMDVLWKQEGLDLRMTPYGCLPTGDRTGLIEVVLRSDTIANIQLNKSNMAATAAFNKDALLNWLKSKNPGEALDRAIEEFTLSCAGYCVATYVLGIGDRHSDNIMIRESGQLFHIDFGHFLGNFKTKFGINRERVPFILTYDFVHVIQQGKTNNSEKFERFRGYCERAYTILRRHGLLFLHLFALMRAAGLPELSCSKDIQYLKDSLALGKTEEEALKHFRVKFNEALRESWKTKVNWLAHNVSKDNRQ

SMILES	IC50 [nM]
COc1cccc2nc([C@H](C)Nc3nc(N)nc(N)c3C#N)n(-c3ccccc3)c(=O)c12	10 to 50
C[C@H](Nc1nc(N)nc(N)c1Cl)c1nc2cccc(Cl)c2c(=O)n1-c1ccccc1	≤ 1
C[C@H](Nc1nc(N)nc(N)c1C#N)c1nc2cccc(C#N)c2c(=O)n1-c1cc(F)cc(C(F)F)c1	10 to 50
C[C@H](Nc1nc(N)nc(N)c1C#N)c1nc2c(F)ccc(F)c2c(=O)n1-c1cccc(F)c1	1 to 10
CC(C)[C@H](Nc1nc(N)nc(N)c1C#N)c1nc2cccc(Cl)c2c(=O)n1-c1cc(F)cc(F)c1	1 to 10
C[C@H](Nc1nc(N)nc(N)c1C#N)c1nc2c(Cl)ccc(F)c2c(=O)n1-c1cc(F)cc(F)c1	1 to 10
Cc1cccc2c(=O)n(-c3cccc(Cl)c3)c([C@H](C)Nc3nc(N)nc(N)c3C#N)nc12	≤ 1
CC[C@H](Nc1nc(N)nc(N)c1C#N)c1nc2cccc(F)c2c(=O)n1-c1cccc(C(F)(F)F)c1	10 to 50
C[C@H](Nc1nc(N)nc(N)c1C#N)c1nc2cccc(S(C)(=O)=O)c2c(=O)n1-c1cc(F)cc(C(F)F)c1	10 to 50
Cc1ccc(F)c2nc([C@H](C)Nc3nc(N)nc(N)c3C#N)n(-c3cccc(C#N)c3)c(=O)c12	≤ 1
C[C@H](Nc1nc(N)nc(N)c1C#N)c1nc2cccc(F)c2c(=O)n1-c1cccc(F)c1	1 to 10
Cc1cccc2nc([C@H](C)Nc3nc(N)nc(N)c3C#N)n(-c3cc(F)cc(F)c3)c(=O)c12	≤ 1
C[C@H](Nc1nc(N)nc(N)c1C#N)c1nc2cccc(Br)c2c(=O)n1-c1cccc(F)c1	≤ 1
Cc1cccc2nc([C@H](C)Nc3nc(N)nc(N)c3C#N)n(-c3ccccc3)c(=O)c12	≤ 1
Cc1ccc(Cl)c2c(=O)n(-c3ccccc3)c([C@H](C)Nc3nc(N)nc(N)c3C#N)nc12	≤ 1
CCC[C@H](Nc1nc(N)nc(N)c1C#N)c1nc2cccc(F)c2c(=O)n1-c1cc(F)cc(F)c1	1 to 10

SMILES	IC50 [nM]
C[C@H](Nc1nc(N)nc(N)c1C#N)c1nc2cccc(Cl)c2c(=O)n1-c1cc(C(F)F)cc(C(F)F)c1	1 to 10
COc1cccc(-n2c([C@H](C)Nc3nc(N)nc(N)c3C#N)nc3cccc(Cl)c3c2=O)c1	≤ 1
CC[C@H](Nc1nc(N)nc(N)c1C#N)c1nc2cccc(Cl)c2c(=O)n1-c1cc(F)cc(F)c1	1 to 10
C[C@H](Nc1nc(N)nc(N)c1C#N)c1nc2c(F)ccc(F)c2c(=O)n1-c1ccccc1	≤ 1
Cc1ccc(Cl)c2c(=O)n(-c3cccc(Cl)c3)c([C@H](C)Nc3nc(N)nc(N)c3C#N)nc12	≤ 1
CC[C@H](Nc1nc(N)nc(N)c1C#N)c1nc2cccc(C(F)F)c2c(=O)n1-c1cc(F)cc(F)c1	1 to 10
C[C@H](Nc1nc(N)nc(N)c1C#N)c1nc2cccc(Br)c2c(=O)n1-c1ccccc1	≤ 1
COc1cc(C(F)F)cc(-n2c([C@H](C)Nc3nc(N)nc(N)c3C#N)nc3cccc(Cl)c3c2=O)c1	1 to 10
C[C@H](Nc1nc(N)nc(N)c1C#N)c1nc2c(Cl)ccc(Cl)c2c(=O)n1-c1cc(F)cc(F)c1	1 to 10
Cc1cccc2nc([C@H](C)Nc3nc(N)nc(N)c3C#N)n(-c3cc(F)cc(C#N)c3)c(=O)c12	1 to 10
C[C@H](Nc1nc(N)nc(N)c1C#N)c1nc2c(Cl)cc(F)cc2c(=O)n1-c1cc(F)cc(F)c1	1 to 10
CC[C@H](Nc1nc(N)nc(N)c1C#N)c1nc2c(F)ccc(F)c2c(=O)n1-c1cc(F)cc(F)c1	10 to 50
CC[C@H](Nc1nc(N)nc(N)c1C#N)c1nc2cccc(C)c2c(=O)n1-c1cc(F)cc(F)c1	≤ 1
C[C@H](Nc1nc(N)nc(N)c1C#N)c1nc2c(Cl)cccc2c(=O)n1-c1cc(F)cc(F)c1	1 to 10
C[C@H](Nc1nc(N)nc(N)c1C#N)c1nc2c(F)ccc(Cl)c2c(=O)n1-c1cccc(C#N)c1	1 to 10
